# From patent US20210161997A1, “TREATING DISEASES VIA TARGETED MODULATION OF GENE SIGNALING NETWORKS” (Camp4 Therapeutics Corporation, priority 2018, published 2021)
# How the values were obtained:
# Format in all cases: cell-based
# [1] = system: JAG1; experiment: RNA-seq of JAG1 expression in compound-treated primary human hepatocytes; conditions: primary human hepatocytes
# Procedure: (§1) Human hepatocytes were obtained from two donors from Massachusetts General Hospital, namely MGH54 and MGH63, and one donor from Lonza, namely HUM4111B. Cryopreserved hepatocytes were cultured in plating media for 16 hours, transferred to maintenance media for 4 hours. Cultured on serum-free media for 2 hours, then a compound was added. The hepatocytes were maintained on the serum-free media for 16 hours prior to gene expression analysis. Primary human hepatocytes were stored in the vapor phase of a liquid nitrogen freezer (about -130° C.). Human hepatocytes cultured as described above were plated in 24-well format, adding 375,000 cells per well in a volume of 500 ul plating medium. Four hours before treatment, cells were washed with PBS and the medium was changed to either: fresh maintenance medium (complete) or modified maintenance medium. Compound stocks were prepared at 1000× final concentration and added in a 2-step dilution to the medium to reduce risk of a compound precipitating out of solution when added to the cells, and to ensure reasonable pipetting volumes. […] The plate was mixed by carefully swirling and after all wells were treated and returned to the incubator overnight. If desired, separate plates/wells were treated with vehicle-only controls and/or positive controls. If using multi-well plates, controls were included on each plate. After about 18 hours, cells were harvested for further analysis, e.g., ChIP-seq, RNA-seq, ATAC-seq, etc. This protocol is a modified version of the following protocols: MagMAX mirVana Total RNA Isolation Kit User Guide (Applied Biosystems #MAN0011131 Rev B.0), NEBNext Poly(A) mRNA Magnetic Isolation Module ([…]), and NEBNext Ultra Directional RNA Library Prep Kit for Illumina ([…]) (New England Biosystems #E74901). […] Two hundred μl of Lysis Binding Mix was used per well of the multiwell plate containing adherent cells (usually a 24-well plate). For mRNA isolation and library prep, the NEBNext Poly(A) mRNA Magnetic Isolation Module and Directional Prep kit was used. RNA isolated from cells above was quantified, and prepared in […] of each sample in 50 μl of nuclease-free water. This protocol may be run in microfuge tubes or in a 96-well plate. […] Genomic alignments were converted to transcriptome alignments based on reference transcript annotations from the Human GENCODE Gene Set release 24 (Harrow et al., Genome Res. […] Standard QC were applied (read integrity, mapping statistics, library complexity, fragment bias) to remove unsatisfactory samples. Differential gene expression was computed using the negative binomial model implemented by DESeq2 version 1.16.1 (Love et al., Genome Biol. (2014) 15(12):550). […] RNA-seq signals were also normalized by read depth and visualized using the UCSC browser. To identify small molecules that modulate target gene expression, primary human hepatocytes were prepared as a monoculture, and at least one small molecule compound was applied to the cells. RNA-seq was performed to determine the effects of the compounds on the expression of the target genes in hepatocytes. Fold change was calculated by dividing the level of expression in the cell system that had been perturbed by the level of expression in an unperturbed system.
# [2] = system: NOTCH2; experiment: RNA-seq of NOTCH2 expression in compound-treated primary human hepatocytes
# Procedure: as §1
# [3] = system: LECT2; experiment: RNA-seq of LECT2 expression in compound-treated primary human hepatocytes
# Procedure: (§2) Human hepatocytes were obtained from two donors from Massachusetts General Hospital, namely MGH54 and MGH63, and one donor from Lonza, namely HUM4111B. Cryopreserved hepatocytes were cultured in plating media for 16 hours, transferred to maintenance media for 4 hours. Cultured on serum-free media for 2 hours, then a compound was added. The hepatocytes were maintained on the serum-free media for 16 hours prior to gene expression analysis. Primary human hepatocytes were stored in the vapor phase of a liquid nitrogen freezer (about −130° C.).
# (§3) Human hepatocytes cultured as described above were plated in 24-well format, adding 375,000 cells per well in a volume of 500 ul plating medium. Four hours before treatment, cells were washed with PBS and the medium was changed to either: fresh maintenance medium (complete) or modified maintenance medium.
# (§4) Compound stocks were prepared at 1000× final concentration and added in a 2-step dilution to the medium to reduce risk of a compound precipitating out of solution when added to the cells, and to ensure reasonable pipetting volumes. One at a time, each compound was first diluted 10-fold in warm (about 37° C.) modified maintenance medium (initial dilution=ID), mixed by vortexing, and the ID was diluted 100-fold into the cell culture (e.g. 5.1 ul into 1 well of a 24-well plate containing 0.5 mL medium). The plate was mixed by carefully swirling and after all wells were treated and returned to the incubator overnight. If desired, separate plates/wells were treated with vehicle-only controls and/or positive controls. If using multi-well plates, controls were included on each plate. After about 18 hours, cells were harvested for further analysis, e.g., ChIP-seq, RNA-seq, ATAC-seq, etc.
# (§5) This protocol is a modified version of the following protocols: MagMAX mirVana Total RNA Isolation Kit User Guide (Applied Biosystems #MAN0011131 Rev B.0), NEBNext Poly(A) mRNA Magnetic Isolation Module (E7490), and NEBNext Ultra Directional RNA Library Prep Kit for Illumina (E7420) (New England Biosystems #E74901).
# (§6) The MagMAX mirVana kit instructions (the section titled “Isolate RNA from cells” on pages 14-17) were used for isolation of total RNA from cells in culture. Two hundred μl of Lysis Binding Mix was used per well of the multiwell plate containing adherent cells (usually a 24-well plate).
# (§7) For mRNA isolation and library prep, the NEBNext Poly(A) mRNA Magnetic Isolation Module and Directional Prep kit was used. RNA isolated from cells above was quantified, and prepared in […] of each sample in 50 μl of nuclease-free water. This protocol may be run in microfuge tubes or in a 96-well plate.
# Standard QC were applied (read integrity, mapping statistics, library complexity, fragment bias) to remove unsatisfactory samples. […] Log 2 fold change and significance values were computed using PME count data (with replicates explicitly modeled versus pan-experiment controls), median ratio normalized, using maximum likelihood estimation rather than maximum a posteriori, and disabling the use of Cook's distance cutoff when determining acceptable adjusted p-values. […] RNA-seq signals were also normalized by read depth and visualized using the UCSC browser.
# To identify small molecules that modulate target gene expression, primary human hepatocytes were prepared as a monoculture, and at least one small molecule compound was applied to the cells.
# RNA-seq was performed to determine the effects of the compounds on the expression of the target genes in hepatocytes. Fold change was calculated by dividing the level of expression in the cell system that had been perturbed by the level of expression in an unperturbed system. Changes in expression having a p-value ≤0.05 were considered significant.
# Significance was defined as an FPKM ≥1, a log 2(fold change) ≥0.5, and a q-value of ≤0.05 for all targets except for CPOX.
# [4] = system: SERPINC1 mRNA; experiment: Quantitative PCR of SERPINC1 mRNA in primary human hepatocytes (Lonza Hu4282) treated with compounds; conditions: quantitative PCR; for SERPINC1 mRNA, Lonza Hu4282, 1 uM / SERPINC1 mRNA, Lonza Hu4282, 10 uM: primary human hepatocytes Lonza Hu4282
# [5] = system: SERPINC1 mRNA; experiment: Quantitative PCR of SERPINC1 mRNA in mouse hepatocytes treated with compounds; conditions: for SERPINC1 mRNA, Mouse Heps, 1 uM: compound 1 uM; for SERPINC1 mRNA, Mouse Heps, 10 uM: compound 10 uM
# Procedure: Samples were amplified using Taqman probes from ThermoFisher.
# In some examples, RQ Min and RQ Max values are also reported. RQ Min and RQ Max are the minimum and maximum relative levels of gene expression in the test samples, respectively. They were calculated using the confidence level set in the analysis settings and the confidence level was set to one standard deviation (SD). These values were calculated using standard deviation as follows: […].
# Compounds were tested in hepatocytes for upregulation of SERPINC1 mRNA for identification of potential treatments of SERPINC1/AT III deficiency.
# [6] = system: ANGPTL3; experiment: RNA-seq of ANGPTL3 expression in compound-treated primary human hepatocytes; conditions: additional compounds (Table 13), linear fold change
# Procedure: as §2, §3, §4, §5, §6, §7
# (§8) All pass filter reads from each sample were mapped against the human genome (assembly GRCh38/GCA_000001405.15 “no alt” analysis set merged with hs38d1/GCA_000786075.2) using two pass mapping via STAR version 2.5.3a (alignment parameters alignIntronMin=20; alignIntronMax=1000000; outFilterMismatchNmax=999; outFilterMismatchNoverLmax=0.05; outFilterType=BySJout; outFilterMultimapNmax=20; alignSJoverhangMin=8; alignSJDBoverhangMin=1; alignMatesGapMax=1000000) (Dobin et al., Bioinformatics (2012) 29(1):15-21). Genomic alignments were converted to transcriptome alignments based on reference transcript annotations from the Human GENCODE Gene Set release 24 (Harrow et al., Genome Res. (2012) 22(9): 1760-1774). Using unique and multimapped transcriptomic alignments, gene-level abundance estimates were computed using RSEM version 1.3.0 (Li and Dewey, BMC Bioinformatics (2011) 12:323) in a strand-aware manner, and including confidence interval sampling calculations, to arrive at posterior mean estimates (PME) of abundances (counts and normalized FPKM—fragments per kilobase of exon per million mapped fragments) from the underlying Bayesian model. Standard QC were applied (read integrity, mapping statistics, library complexity, fragment bias) to remove unsatisfactory samples.
# [7] = system: FN1; experiment: RNA-seq of FN1 expression in compound-treated primary human hepatocytes; conditions: perturbed vs unperturbed, significance FPKM ≥1, log 2(fold change) ≥0.5, q-value ≤0.05
# Procedure: as §2, §3, §4, §5, §6, §7, §8
compound,measurement,setting,value
740 Y-P,JAG1 Fold Change (Log2),[1],0 Log2
same,NOTCH2 Fold Change (Log2),[2]; primary human hepatocytes,0.66 Log2
same,Significant modulation of NOTCH2 (in words),[2]; summary of Table 6,significantly modulate only NOTCH2
same,LECT2 Fold Change (Log2),[3],−0.62 Log2
COc1cc2ncnc(Nc3ccc(Oc4ccccc4)cc3C)c2cc1OC.Cl [APS-2-79],LECT2 Fold Change (Log2),[3],−0.68 Log2
O=C(Nc1c[nH]nc1-c1nc2ccc(CN3CCOCC3)cc2[nH]1)NC1CC1 [AT9283],"SERPINC1 mRNA, Lonza Hu4282, 1 uM",[4]; compound 1 uM,0.91
same,"SERPINC1 mRNA, Lonza Hu4282, 10 uM",[4]; compound 10 uM,2.2
same,"SERPINC1 mRNA, Mouse Heps, 1 uM",[5],1.11
same,"SERPINC1 mRNA, Mouse Heps, 10 uM",[5],1.81
CCNC(=O)Nc1ccc(-c2nc(N3CCOC[C@@H]3C)c3c(n2)C(C)(C)S(=O)(=O)C3)cc1 [CZ415],"SERPINC1 mRNA, H8290, 1 uM","[4]; hepatocytes H8290, compound 1 uM",1.4
same,"SERPINC1 mRNA, H8290, 10 uM","[4]; hepatocytes H8290, compound 10 uM",2.3
same,"SERPINC1 mRNA, Lonza Hu4282, 1 uM",[4]; compound 1 uM,1.25
same,"SERPINC1 mRNA, Lonza Hu4282, 10 uM",[4]; compound 10 uM,1.42
same,"SERPINC1 mRNA, Mouse Heps, 1 uM",[5],2.2
same,"SERPINC1 mRNA, Mouse Heps, 10 uM",[5],2.5
CCN(CC)CCN(Cc1ccc(-c2ccc(C(F)(F)F)cc2)cc1)C(=O)Cn1c(SCc2ccc(F)cc2)nc(=O)c2c1CCC2 [Darapladib],LECT2 Fold Change (Log2),[3],−0.55 Log2
same,ANGPTL3-LINEAR FOLD CHANGE,[6],0.4569
O=[N+]([O-])c1ccc(Sc2cccc[n+]2[O-])c2nonc12 [NSC228155],LECT2 Fold Change (Log2),[3],−0.74 Log2
Cc1[nH]c(/C=C2\C(=O)Nc3ccc(S(=O)(=O)Cc4c(Cl)cccc4Cl)cc32)c(C)c1C(=O)N1CCC[C@@H]1CN1CCCC1 [PHA-665752],FN1 Fold Change (Log2),[7],−1.14 Log2
"CCCC(=O)O[C@@H]1[C@@H](C)[C@@]2(O)[C@@H](C=C(CO)C[C@]3(O)C(=O)C(C)=C[C@@H]23)[C@@H]2C(C)(C)[C@]12OC(=O)CCC [Phorbol 12,13-dibutyrate]",LECT2 Fold Change (Log2),[3],−0.65 Log2
